Source: patent US20090099167A1, “Organic compounds” (Novartis Institutes for Biomedical Research, priority 2004, published 2009)

Columns and labels:
human EphB4 = molecular target: T1, human EphB4 (Homo sapiens, UniProt P54760); test: Cellular assay EphB4 receptor autophosphorylation, transfected A375 cells, sandwich ELISA; type: cell-based; conditions: inhibition of autophosphorylation of EphB4 kinase, Table 6
T1 construct: expressed in transfected cells; host or cells: A375 human melanoma cells (ATCC CRL-1619)
T1 sequence (P54760 16-987): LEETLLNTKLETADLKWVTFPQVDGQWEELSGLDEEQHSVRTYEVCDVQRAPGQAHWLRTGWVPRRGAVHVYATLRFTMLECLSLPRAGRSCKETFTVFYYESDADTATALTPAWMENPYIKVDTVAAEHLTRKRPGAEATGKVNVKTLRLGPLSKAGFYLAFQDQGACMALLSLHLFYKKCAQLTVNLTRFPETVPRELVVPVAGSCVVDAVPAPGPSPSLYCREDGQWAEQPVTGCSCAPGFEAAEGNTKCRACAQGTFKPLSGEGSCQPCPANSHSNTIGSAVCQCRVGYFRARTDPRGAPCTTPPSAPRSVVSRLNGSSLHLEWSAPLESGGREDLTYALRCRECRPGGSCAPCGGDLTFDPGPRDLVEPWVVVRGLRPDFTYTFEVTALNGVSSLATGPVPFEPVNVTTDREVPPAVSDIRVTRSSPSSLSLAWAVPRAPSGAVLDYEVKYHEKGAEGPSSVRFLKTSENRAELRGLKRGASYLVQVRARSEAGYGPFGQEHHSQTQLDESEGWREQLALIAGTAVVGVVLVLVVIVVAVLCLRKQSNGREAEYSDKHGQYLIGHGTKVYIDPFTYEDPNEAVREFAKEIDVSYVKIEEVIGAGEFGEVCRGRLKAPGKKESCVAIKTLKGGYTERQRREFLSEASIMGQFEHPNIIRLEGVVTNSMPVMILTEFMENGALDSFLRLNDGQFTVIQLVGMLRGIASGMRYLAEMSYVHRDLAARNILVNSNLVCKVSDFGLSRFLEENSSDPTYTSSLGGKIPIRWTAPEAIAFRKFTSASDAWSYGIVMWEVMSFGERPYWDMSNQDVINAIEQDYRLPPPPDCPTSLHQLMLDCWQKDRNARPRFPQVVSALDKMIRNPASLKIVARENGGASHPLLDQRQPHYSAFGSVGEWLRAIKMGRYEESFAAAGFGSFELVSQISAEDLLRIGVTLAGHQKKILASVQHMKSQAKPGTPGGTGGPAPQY
Description: The inhibition of EphB4 receptor autophosphorylation can be confirmed with an in vitro experiment in cells such as transfected A375 human melanoma cells (ATCC Number: CRL-1619), which permanently express human EphB4 (SwissProt AccNo P54760), are seeded in complete culture medium (with 10% fetal calf serum=FCS) in 6-well cell-culture plates and incubated at 37° C. under 5% CO2 until they show about 90% confluency. The compounds to be tested are then diluted in culture medium (without FCS, with 0.1% bovine serum albumin) and added to the cells. (Controls comprise medium without test compounds). Ligand induced autophosphorylation is induced by the addition of 1 microg/ml soluble ephrinB2-Fc (s-ephrinB2-Fc: R&D Biosystems, CatNr 496-EB) and 0.1 microM ortho-vanadate. After a further 20 minutes incubation at 37° C., the cells are washed twice with ice-cold PBS (phosphate-buffered saline) and immediately lysed in 200 μl lysis buffer per well. The lysates are then centrifuged to remove the cell nuclei, and the protein concentrations of the supernatants are determined using a commercial protein assay (PIERCE). The lysates can then either be immediately used or, if necessary, stored at −20° C.
A sandwich ELISA is carried out to measure the EphB4 phosphorylation: To capture phosphorylated EphB4 protein 100 ng/well of ephrinB2-Fc (s-ephrinB2-Fc: R&D Biosystems, CatNr 496-EB) is immobilized MaxiSorb (Nunc) ELISA plates. The plates are then washed and the remaining free protein-binding sites are saturated with 3% TopBlock® (Juro, Cat. # TB232010) in phosphate buffered saline with Tween 20° (polyoxyethylen(20)sorbitane monolaurate, ICI/Uniquema) (PBST). The cell lysates (100 μg protein per well) are then incubated in these plates for 1 h at room temperature. After washing the wells three times with PBS an antiphosphotyrosine antibody coupled with alkaline phosphatase (PY 20 Alkaline Phosphate conjugated: ZYMED, Cat Nr03-7722) is added and incubated for another hour. […] The difference between the signal of the positive control (stimulated with vanadate and s-ephrinB2-Fc) and that of the negative control (not stimulated) corresponds to maximal EphB4 phosphorylation (=100%). The activity of the tested substances is calculated as percent inhibition of maximal EphB4 phosphorylation, wherein the concentration of substance that induces half the maximum inhibition is defined as the IC50 (inhibitory dose for 50% inhibition). […] The mice are treated with the test compound (e.g. 25, 50 or 100 mg/kg p.o. once daily) or vehicle starting on the day of implantation of the chamber and continuing for 4 days after. At the end of the treatment, the mice are killed, and the chambers are removed. The vascularized tissue growing around the chamber is carefully removed and weighed, and the blood content is assessed by measuring the hemoglobin content of the tissue (Drabkins method; Sigma, Deisenhofen, Germany). It has been shown previously that these growth factors induce dose-dependent increases in weight and blood content of this tissue growing (characterized histologically to contain fibroblasts and small blood vessels) around the chambers and that this response is blocked by antibodies that specifically neutralize VEGF (see Wood J M et al., Cancer Res. 60(8), 2178-2189, (2000); and Schlaeppi et al., J. Cancer Res. Clin. Oncol. 125, 336-342, (1999)). With this model, inhibition can be shown in the case of compounds of the formula (I).

[1] = molecular target: T2, human VEGF-R2 receptor (KDR) (Homo sapiens, UniProt P35968); test: VEGF-induced KDR autophosphorylation in transfected CHO cells, sandwich ELISA; type: cell-based; conditions: Table 4; read-out: KDR, activity (IC50 for kinase inhibition)
T2 construct: expressed in transfected cells; host or cells: CHO cells
T2 sequence (P35968 20-1356): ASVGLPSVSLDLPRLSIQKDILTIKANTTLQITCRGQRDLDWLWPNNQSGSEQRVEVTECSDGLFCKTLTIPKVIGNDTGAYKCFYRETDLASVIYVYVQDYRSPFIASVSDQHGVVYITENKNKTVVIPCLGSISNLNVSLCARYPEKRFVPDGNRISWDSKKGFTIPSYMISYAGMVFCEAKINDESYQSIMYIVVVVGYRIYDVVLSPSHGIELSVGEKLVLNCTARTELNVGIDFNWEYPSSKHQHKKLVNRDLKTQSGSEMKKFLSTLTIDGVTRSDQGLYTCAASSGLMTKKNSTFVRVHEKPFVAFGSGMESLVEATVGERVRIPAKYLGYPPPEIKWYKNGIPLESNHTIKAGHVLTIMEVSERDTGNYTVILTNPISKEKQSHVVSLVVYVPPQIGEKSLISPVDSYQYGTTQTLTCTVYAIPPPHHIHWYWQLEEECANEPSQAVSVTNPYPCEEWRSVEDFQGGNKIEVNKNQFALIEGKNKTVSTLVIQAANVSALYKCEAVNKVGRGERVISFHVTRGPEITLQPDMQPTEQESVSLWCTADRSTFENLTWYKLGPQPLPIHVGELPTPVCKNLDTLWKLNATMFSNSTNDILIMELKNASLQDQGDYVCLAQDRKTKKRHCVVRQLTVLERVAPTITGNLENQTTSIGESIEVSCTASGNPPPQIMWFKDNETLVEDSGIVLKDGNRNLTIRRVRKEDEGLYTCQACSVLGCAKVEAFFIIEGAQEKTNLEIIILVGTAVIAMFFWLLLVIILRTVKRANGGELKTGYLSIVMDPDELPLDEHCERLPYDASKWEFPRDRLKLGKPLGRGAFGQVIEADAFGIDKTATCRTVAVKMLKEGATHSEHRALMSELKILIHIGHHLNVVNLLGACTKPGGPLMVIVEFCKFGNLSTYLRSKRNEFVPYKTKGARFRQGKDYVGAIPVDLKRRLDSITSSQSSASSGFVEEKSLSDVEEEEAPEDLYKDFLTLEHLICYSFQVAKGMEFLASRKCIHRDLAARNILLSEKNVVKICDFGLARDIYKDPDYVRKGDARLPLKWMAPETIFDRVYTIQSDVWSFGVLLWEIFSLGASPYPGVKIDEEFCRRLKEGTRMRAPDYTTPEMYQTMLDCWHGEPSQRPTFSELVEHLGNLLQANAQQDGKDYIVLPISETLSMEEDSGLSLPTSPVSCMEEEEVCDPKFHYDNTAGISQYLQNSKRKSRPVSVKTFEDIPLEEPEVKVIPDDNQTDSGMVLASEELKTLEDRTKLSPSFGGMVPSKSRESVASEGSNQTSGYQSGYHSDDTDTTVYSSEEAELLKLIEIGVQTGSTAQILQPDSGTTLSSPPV

Row | SMILES | IC50 (human EphB4) [nM] | IC50 [1] [nM]
1 | Cc1nc2c(-c3cccc(N4CCN(CCO)CC4)c3)cnn2c(N)c1-c1ccc(F)c(Cl)c1 [Example 100, 2-(4-{3-[7-Amino-6-(3-chloro-4-fluoro-phenyl)-5-methyl-pyrazolo[1,5-a]pyrimidin-3-yl]-phenyl}-piperazin-1-yl)-ethanol] | < 1000 | 
2 | Cc1nc2c(-c3ccc(N4CCN(C)CC4)cc3)cnn2c(N)c1-c1ccc(F)c(Cl)c1 [Example 83, 6-(3-Chloro-4-fluoro-phenyl)-5-methyl-3-[4-(4-methyl-piperazin-1-yl)-phenyl]-pyrazolo[1,5-a]pyrimidin-7-ylamine] | < 1000 | 
3 | Nc1c(-c2cccc(O)c2)cnc2c(-c3cccnc3)cnn12 [Example 46, 3-[7-Amino-3-pyridin-3-yl-pyrazolo[1,5-a]pyrimidin-6-yl]-phenol] |  | < 10000
4 | Cc1nc2c(-c3cccc(N4CCN(CCO)CC4)c3)cnn2c(N)c1-c1cccc(Cl)c1 [Example 90, 2-(4-{3-[7-Amino-6-(3-chloro-phenyl)-5-methyl-pyrazolo[1,5-a]pyrimidin-3-yl]-phenyl}-piperazin-1-yl)-ethanol] | < 1000 | 
5 | Cc1nc2c(-c3cccc(N4CCN(C)CC4)c3)cnn2c(N)c1-c1ccc(F)cc1 [Example 80, 6-(4-Fluoro-phenyl)-5-methyl-3-[3-(4-methyl-piperazin-1-yl)-phenyl]-pyrazolo[1,5-a]pyrimidin-7-ylamine] | < 1000 | 
6 | COc1ccc(-c2cnn3c(N)c(-c4cccc(Cl)c4)c(C)nc23)cc1OC [Example 93, 6-(3-Chloro-phenyl)-3-(3,4-dimethoxy-phenyl)-5-methyl-pyrazolo[1,5-a]pyrimidin-7-ylamine] | < 1000 | 
7 | CN1CCN(c2ccc(-c3cnn4c(N)c(-c5cccc(O)c5)cnc34)cc2)CC1 [Example 1, 3-{7-Amino-3-[4-(4-methyl-piperazin-1-yl)-phenyl]-pyrazolo[1,5-a]pyrimidin-6-yl}-phenol] |  | < 10000
8 | CN1CCN(c2cccc(-c3cnn4c(N)c(-c5cccc(O)c5)cnc34)c2)CC1 [Example 29, 3-{7-Amino-3-[3-(4-methyl-piperazin-1-yl)-phenyl]-pyrazolo[1,5-a]pyrimidin-6-yl}-phenol] |  | < 10000
